Measurements from patent US20190351006A1, “METHODS OF ADMINISTRATION OF NMDA RECEPTOR AGONISTS” (Naurex Inc., priority 2017, published 2019).
Peptide text beside a SMILES is read from it.

Columns and labels:
scPCP-treated mice [1] = assay: Novel object recognition (NOR) in subchronic PCP (scPCP) mice; format: in vivo, Male C57BL/6J mice
Procedure: Animals: Male C57BL/6J mice 22-25 g (21/2 to 3 month old) were used is these studies. Drugs: Rapastinel was obtained from SAI Life Sciences (India). Rapastinel, PCP, and ketamine were dissolved in 0.9% sterile saline (Sal). PCP and ketamine were administered intraperitoneally (ip), at a volume of 10 mL/kg body weight. Rapastinel was given subcutaneously (subcu), and rapamycin was given intracerebroventricularly (icy). Drug Treatments: Male C57BL/6J mice were randomly assigned to treatment groups of 10 per group. To develop the cognitive deficit, groups of 10 mice were treated with PCP (10 mg/kg i.p., twice a day for 7 days) followed by a 7-day washout period. Following the washout period, the subchronic PCP mice were tested to determine that an NOR deficit had been established. See Rajagopal et al 3,4. See FIG. 7, for treatment schedules. Behavior, in vivo Microdialysis (MD) and ICV Procedures—The procedures have been described in detail in References 3,10,11,12,13. See FIG. 7. for pictorial representations of drug treatment protocols. Rapastinel's ability to restore episodic memory (NOR) and cognitive flexibility (RL), like its antidepressant action in rodents, is mTOR dependent as indicated by blockade by ICV rapamycin. […] Increase in cortical DA efflux, in transient and subchronic rescue by rapastinel, may be important for triggering neuroplastic changes in AMPAR modulation of the activity of principal neurons in mPFC and HIP.

scPCP-treated mice [2] = assay: Reversal learning (RL) task in subchronic PCP mice; format: in vivo, Male C57BL/6J mice
Procedure: (§1) Animals: Male C57BL/6J mice 22-25 g (21/2 to 3 month old) were used is these studies. Drugs: Rapastinel was obtained from SAI Life Sciences (India). Rapastinel, PCP, and ketamine were dissolved in 0.9% sterile saline (Sal). PCP and ketamine were administered intraperitoneally (ip), at a volume of 10 mL/kg body weight. Rapastinel was given subcutaneously (subcu), and rapamycin was given intracerebroventricularly (icy). Drug Treatments: Male C57BL/6J mice were randomly assigned to treatment groups of 10 per group. To develop the cognitive deficit, groups of 10 mice were treated with PCP (10 mg/kg i.p., twice a day for 7 days) followed by a 7-day washout period. Following the washout period, the subchronic PCP mice were tested to determine that an NOR deficit had been established. See Rajagopal et al 3,4. See FIG. 7, for treatment schedules. Behavior, in vivo Microdialysis (MD) and ICV Procedures—The procedures have been described in detail in References 3,10,11,12,13. See FIG. 7. for pictorial representations of drug treatment protocols. Rapastinel's ability to restore episodic memory (NOR) and cognitive flexibility (RL), like its antidepressant action in rodents, is mTOR dependent as indicated by blockade by ICV rapamycin. […]

C57BL/6J mice = assay: In vivo microdialysis of neurotransmitter efflux in mPFC and HIP; parameters: species or system Male C57BL/6J mice; details: rapastinel 1 mg/kg subcu, ketamine 30 mg/kg
Procedure: as §1

[3] = PCP 10 mg/kg i.p. twice a day for 7 days, then 7-day washout

C[C@@H](O)[C@H](N)C(=O)N1CCC[C@H]1C(=O)N1CCC[C@H]1C(=O)N[C@H](C(N)=O)[C@@H](C)O [rapastinel] (H-TPPT-NH2)
Duration of rescue of NOR deficit after subchronic rapastinel, 5 days (scPCP-treated mice [1]; scPCP mice, 1 mg/kg sc, b.i.d. for 5 days): at least 10 weeks | NOR deficit (DI), acute rapastinel (scPCP-treated mice [1]; scPCP mice, 1 mg/kg subcu, 30 min before AT): rescued NOR deficit | Reversal of scPCP-induced NOR deficit, 5 day vs 3 day treatment (scPCP-treated mice [1]; scPCP mice, 1 mg/kg subcu, b.i.d. for 5 days): longer compared to 3 day treatment | NOR after a single acute dose once the subchronic effect had ended (scPCP-treated mice [1]; scPCP mice, single dose 1 mg/kg sc, 30 min prior to AT, week 10 (or week 11)): restored NOR | RL deficit (percent correct responses), acute rapastinel (scPCP-treated mice [2]; scPCP mice, 1 mg/kg sc, 30 min before reversal phase of the RL task): rescued RL deficit | Neurotransmitter efflux in mPFC (C57BL/6J mice): small selective increase in DA efflux

CNC1(c2ccccc2Cl)CCCCC1=O (stereo not drawn) [Ketamine, ketamine, reference compound]
Neurotransmitter efflux in mPFC (C57BL/6J mice): very large increases in the efflux of ACh, DA, 5-HT, DOPAC, 5-HIAA, and glutamate, and serine

c1ccc(C2(N3CCCCC3)CCCCC2)cc1 [PCP, reference compound]
DI in NOR vs vehicle-treated mice (scPCP-treated mice [1]; [3]): reduced DI | Percent correct responses in RL vs veh-treated mice (scPCP-treated mice [2]; [3]): reduced percent correct responses
